For 31 compounds, TGI and GI50 results are on record in PubChem BioAssay (NCI).

Common to all, as to assay: NCI anticancer screen, dose series, 48 h
The test system of test [1] is NCI-H226 lung.
Test [2] deals with BT-549 breast.
Test [3] relates to MOLT-4 leukemia.
Test [4] deals with KM12 colon.
The subject of test [5] is HCT-15 colon.
Test [6] concerns HOP-62 NSCLC.
The test system of test [7] is MDA-N.
For test [8], the system named is SF-268 CNS.
Test [9] concerns A549 NSCLC.

Structures are written as SMILES. Several values for one entry are separate records, joined by “and”; a condition that tells them apart may be missing. Identical values can stand only once.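 Growth conditions: 96-well plates. Treatment: test compound, 48 hours, 5 concentrations. Analysis: linear interpolation between bracketing concentrations; unreached endpoints set to highest concentration. The concentration for 50% growth inhibition is given as GI50. TGI: concentration producing complete growth inhibition.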

In the case of `Oc1cc(Br)cc2cc(Cl)cnc12`, the TGI in [1] is 64.4 µM; in [2], 47.6 µM; in test [3], 7.49 µM; in [4] it was greater than 42.7 µM; in [5] it was greater than 100 µM; in [6], greater than 60.4 µM. Also, the TGI in test [7] is greater than 100 µM; in test [8], greater than 39.9 µM; in [9] it was greater than 56.1 µM.

Consider `O=c1ccc2nc(-c3ccccn3)nn(-c3ccccc3)c-2c1`, for which the GI50 in test [1] is 3.2 µM; in test [2], 2.86 µM; in test [4] it was 14.5 µM; in test [6], 3.76 µM; in [8], 11.8 µM; in [9], 18.4 µM. The TGI stood at 11.9 µM in test [1]; 10.1 µM in [2]; 28.9 µM in [4]; 44.3 µM in test [6]; 25.3 µM in [8]; 42.3 µM in test [9].

With `O=c1ccc2ccc(O)cc2o1`, the TGI in [1], in test [2], in test [3], in test [4], in test [5] and in [6] was greater than 100 µM each time. In addition, the TGI in test [7], in [8] and in test [9] was greater than 100 µM in each case.

As to `C=C(C(=O)O[C@H]1C(=O)C2=C(C)CCC3C(=C)C(=O)O[C@@H]3C2[C@]1(C)O)C1CC[C@]2(C)CCCC(=C)[C@H]2C1` (stereo not given in full), the GI50 in [1] is 6.81 µM; in test [2], 6.99 µM; in test [5], 1.92 µM; in [6], 3.09 µM; in test [7] it was 0.117 µM; in [8] it was 7.47 µM. For the same compound, in test [9], the GI50 was 5.59 µM. Further, the TGI in [1] was 16 µM and 36.6 µM; in [2] it was 14 µM and 11.1 µM; in [3] it was 5.38 µM; in test [4] it was 20.5 µM; in test [5], 8.77 µM and 12.8 µM; in test [6], 10.2 µM and 20.5 µM. The TGI is 11.6 µM and 8.45 µM in test [7]; 14.8 µM and 11 µM in [8]; 12.9 µM and 24.5 µM in test [9].

In the case of `Brc1ccc2c(-c3csc(-c4c[nH]c5ccccc45)n3)c[nH]c2c1`, the TGI in test [1] is 34 µM; in test [2] it was 37.4 µM; in [3] it was 36.3 µM; in test [4] it was 34.7 µM; in test [5], 28.5 µM; in test [6], 30.8 µM. Moreover, the TGI in test [7] was determined as 39.8 µM; in test [8], 34.5 µM; in test [9], 29.2 µM. Besides, the GI50 in test [3] was 19.9 µM; in test [5], 15.2 µM; in [7] it was 19.2 µM.

For the compound `[N-]=[N+]=C(C(=O)N1CCCC1=O)S(=O)(=O)c1ccccc1`, the TGI in [2], in [3], in test [4], in test [5], in test [6] and in [7] was greater than 100 µM in each case. Also, the TGI in [8] and in [9] was greater than 100 µM each time.

In the case of `Cc1ccc(-n2cc([Si](C)(C)C)nn2)s1`, the TGI in test [1], in test [2], in test [5], in [7], in test [8] and in [9] was greater than 100 µM each time.

In the case of `CCN1CCC(O)(/C=C/c2ccc(OC)cc2)C(C(=O)/C=C/c2ccc(OC)cc2)C1` (stereo not given), the TGI came to 29.7 µM in test [1]; 28.9 µM in test [2]; 12.4 µM in [3]; 19.9 µM in [4]; 33.4 µM in test [6]; 28.8 µM in [8]. In test [9], this compound registered a TGI of 34 µM.

As to `Cc1nc2ccccc2c(/C=C/c2ccc(Cl)cc2)c1C(=O)/C=C/c1ccccc1`, the GI50 in test [1] was 1.58 µM; in test [3], 0.884 µM; in test [4], 1.56 µM; in test [5] it was 1.36 µM; in test [9] it was 2.24 µM. For the same compound, the TGI in test [1] stood at 3.22 µM; in [3] it was 4.88 µM; in test [4] it was 3.04 µM; in test [5] it was 4.03 µM; in test [9] it was 6.54 µM.

With `CC(=O)OC1COC(Nc2nc(N)n(C)c(=O)c2N=O)C(OC(C)=O)C1OC(C)=O` (stereo not given), the TGI in test [1], in [2], in test [3], in test [4], in test [6] and in test [7] was greater than 10 µM throughout. Moreover, the TGI in test [8] and in [9] was greater than 10 µM throughout.

Turning to `CCOC(=O)C(NC(=O)OC(C)(C)C)C(=O)OCC`, the TGI in [2], in [3], in [4], in [5], in test [6] and in [8] was greater than 100 µM in each case. The same compound returned a TGI in test [9] greater than 100 µM.

In the case of `COc1cc(Br)c(CC2C3=C(CCN2C(=O)C2CCC2)CC(=O)CC3)cc1O` (stereo not given), the TGI in [1] is greater than 100 µM; in [3], greater than 100 µM; in test [4] it was 73.3 µM; in test [5], 47.5 µM; in [6], greater than 100 µM; in test [7] it was 45 µM. The TGI in test [8] and in test [9] was greater than 100 µM throughout.

For the compound `CN1CCN(C2=CC(=O)c3c(O)ccc(O)c3C2=O)CC1`, the TGI in test [1] was found to be 2.96 µM; in [2], 3.14 µM; in test [3], 4.75 µM; in test [4] it was 3.59 µM; in test [6], 2.16 µM; in [7], 0.325 µM. Besides, the TGI stood at 2.93 µM in test [8] and 3.5 µM in [9].

Turning to `Oc1ccc(Cl)cc1C1=NC(/N=C\c2ccccc2)=NC(c2ccccc2)C1` (stereo not given), the TGI in [1], in test [2], in test [3], in test [4], in [6] and in test [8] was greater than 100 µM throughout. This compound also gave a TGI in [9] greater than 100 µM.

As for `CC(=O)Nc1ccccc1NC1CC(C)N(c2ccccc2)N1C(C)=O` (stereo not given), the TGI in test [3], in [4], in test [5], in test [6], in test [7] and in [8] was greater than 10 µM in each case. Besides, the TGI in [9] was greater than 10 µM.

As to `COC(=O)C1=C(C(=O)OC)SC2(S1)C(C(=O)OC)=C(C(=O)OC)Sc1c2ssc1=NC(C)(C)C`, the TGI in [1] stood at 12.8 µM; in test [2], 7.47 µM; in test [3], 2.16 µM; in test [4] it was 3.91 µM; in test [5], 2.19 µM; in test [6], 15.5 µM. For the same compound, the TGI in [8] stood at 4.72 µM; in [9], 8.69 µM.

As to `O=C(CSc1nc2ccccc2c(=O)n1-c1ccccc1)N=Nc1c(O)[nH]c2ccc(F)cc12`, the TGI in test [3] is 3.43 µM; in test [4] it was 32.6 µM; in test [6], 6.77 µM; in test [7] it was 14 µM; in test [8], 4.93 µM; in test [9] it was 21.6 µM.

Take `O=c1c2ccccc2nc(N/N=C/c2ccccc2O)n1-c1ccccc1`: the TGI in test [1], in test [2], in test [5], in test [6], in [7] and in [8] was greater than 100 µM each time. This compound displayed a TGI in test [9] greater than 100 µM.

`NCCCNCCCCN1CC1`: the TGI in test [1] was greater than 20.9 µM; in test [2], greater than 20.5 µM; in test [4], greater than 30.7 µM; in test [5], greater than 33.2 µM; in [6], 14.1 µM; in test [7], greater than 100 µM. For the same compound, the TGI in test [8] is greater than 29.9 µM; in [9] it was greater than 44.5 µM.

On to `CCC(NC1=NCCO1)c1cccs1` (stereo not given), for which the TGI is 37.1 µM in test [1]; 37.7 µM in [2]; greater than 100 µM in test [3]; 36 µM in test [4]; 30.2 µM in test [5]; 27.7 µM in [7]. This compound also showed a TGI in test [9] of 28.1 µM.

For `CC(C)(C)[Si](C)(C)OCC1OC(n2cnc3c(=O)[nH]c(N)nc32)C(O[Si](C)(C)C(C)(C)C)C1O[Si](C)(C)C(C)(C)C` (stereo not given), the TGI is 6.79 µM in test [1]; 3.45 µM in [3]; 3.19 µM in test [4]; greater than 100 µM in test [5]; 7.73 µM in [6]; 3.3 µM in test [7]. The TGI is 7.16 µM in test [8] and 7.61 µM in test [9].

`CC1=NN(c2nc(N)nc(CF)n2)C(C)(C)C1`: the TGI in test [1], in test [2], in [3], in test [4], in test [5] and in [6] was greater than 100 µM each time. The same compound registered a TGI in test [8] greater than 100 µM.

Consider `NC1CC=C(COC(=O)C(O)(c2ccccc2)C2CC2)CC1` (stereo not given), for which the TGI in test [1], in test [3], in test [4], in [5], in test [6] and in test [7] was greater than 100 µM throughout. The TGI in test [8] and in [9] was greater than 100 µM each time.

Consider `C=CC(C)(C)C(=C)C(=O)Nc1ccccc1I`, for which the TGI in test [1], in test [4], in test [5], in test [6], in test [7] and in test [8] was greater than 100 µM throughout. Also, the TGI in test [9] is greater than 100 µM.

`CCC[C@@H]1C(=O)N=C(N)N1C(=O)OCc1ccccc1`: the TGI in test [1], in [2], in test [3], in [4], in test [5] and in [6] was greater than 100 µM each time. Besides, the TGI in test [7] and in test [8] was greater than 100 µM each time.

In the case of `CCOC(=O)N1CCC(=C2c3ccc(Cl)cc3CCc3cccnc32)CC1`, the TGI worked out at 40.6 µM in test [1]; 33.3 µM in [3]; 24.3 µM in test [4]; 23.4 µM in test [5]; 36.3 µM in [6]; 16.8 µM in [7]. The compound further had a TGI in test [9] greater than 100 µM.

In the case of `Cc1ccc(NC(=O)CSC(N)=O)cc1C`, the TGI in [1], in test [3], in [4], in test [5], in test [6] and in [8] was greater than 100 µM in each case. This compound also yielded a TGI in [9] greater than 100 µM.

Turning to `COc1ccc(-c2nn(-c3ccc(NC(=O)Nc4ccc(Cl)c(C(F)(F)F)c4)cc3)cc2-c2ccncc2)cc1Cl`, the GI50 is 2.59 µM in test [1]; 1.7 µM in test [3]; 1.22 µM in test [4]; 1.12 µM in test [5]; 1.81 µM in test [6]; 2.8 µM in [8]. Also, in test [9], the GI50 is 1.2 µM. Also, the TGI amounted to 8.78 µM in test [1]; 6.75 µM in test [3]; 4.34 µM in test [4]; 3.03 µM in test [5]; 4.45 µM in [6]; 19.5 µM in test [8]. The same compound registered a TGI in test [9] greater than 100 µM.

Consider `CNc1ncnc2c1cnn2Cc1cn(COCC(O)CO)nn1` (stereo not given), for which the TGI in test [1], in [2], in [4], in test [5], in test [6] and in test [7] was greater than 100 µM throughout. Further, the TGI in test [8] was 22 µM; in test [9], greater than 100 µM.

Consider `C=C(c1ccccc1)c1ccccc1-c1cc(-c2ccccc2)cc(-c2ccccc2)n1`, for which the TGI in test [1], in test [3], in [4], in [5], in [6] and in test [7] was greater than 100 µM each time. The TGI in test [8] and in test [9] was greater than 100 µM each time.

With `CCOC(=O)c1c(-c2cccc3ccccc23)c(C#N)c(=S)n(C2OC(COC(C)=O)C(OC(C)=O)C(OC(C)=O)C2OC(C)=O)c1C` (stereo not given), the TGI in test [1], in test [3], in [4], in [5], in test [6] and in [7] was greater than 100 µM each time. In addition, the TGI in test [8] and in [9] was greater than 100 µM each time.
